What was measured:
Format in all cases: cell-based
[1] = biological target: T1, AR (Homo sapiens, UniProt P10275); experiment: Degradation of AR in VCaP cells; details: VCaP cells
T1 construct: Degradation of AR; Cellular potency; host or cells: VCaP cells
T1 sequence (P10275 1-920): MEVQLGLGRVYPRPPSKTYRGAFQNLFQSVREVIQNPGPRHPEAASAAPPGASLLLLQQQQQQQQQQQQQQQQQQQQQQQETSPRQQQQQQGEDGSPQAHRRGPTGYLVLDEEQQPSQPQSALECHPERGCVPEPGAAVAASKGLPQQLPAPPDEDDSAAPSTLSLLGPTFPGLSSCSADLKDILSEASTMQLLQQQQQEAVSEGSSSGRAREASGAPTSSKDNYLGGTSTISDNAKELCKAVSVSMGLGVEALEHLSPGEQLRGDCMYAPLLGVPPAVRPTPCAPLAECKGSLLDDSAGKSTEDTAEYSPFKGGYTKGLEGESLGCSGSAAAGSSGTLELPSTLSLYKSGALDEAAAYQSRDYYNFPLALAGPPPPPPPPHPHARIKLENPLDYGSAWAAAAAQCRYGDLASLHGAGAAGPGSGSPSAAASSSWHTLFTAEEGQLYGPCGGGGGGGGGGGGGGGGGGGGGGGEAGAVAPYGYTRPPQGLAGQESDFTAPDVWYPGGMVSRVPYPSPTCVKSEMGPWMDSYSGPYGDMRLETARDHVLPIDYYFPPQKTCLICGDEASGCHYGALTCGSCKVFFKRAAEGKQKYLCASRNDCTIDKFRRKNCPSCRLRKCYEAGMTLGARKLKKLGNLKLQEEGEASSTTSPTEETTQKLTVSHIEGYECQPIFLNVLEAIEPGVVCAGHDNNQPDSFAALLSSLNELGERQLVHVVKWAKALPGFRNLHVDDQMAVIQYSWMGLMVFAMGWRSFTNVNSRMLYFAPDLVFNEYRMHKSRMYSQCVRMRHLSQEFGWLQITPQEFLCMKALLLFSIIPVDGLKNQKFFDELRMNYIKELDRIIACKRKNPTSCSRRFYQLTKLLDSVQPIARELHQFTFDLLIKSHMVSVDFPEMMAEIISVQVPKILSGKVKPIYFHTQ
Experimental: (§1) Biological Assays. LNCaP and VCaP cells used were purchased from American Type Culture Collection (ATCC). LNCaP were grown in RPMI 1640 (Invitrogen) and VCaP cells were grown in DMEM with Glutamax (Invitrogen). All of the cells were supplemented with 10% fetal bovine serum (Invitrogen) at 37° C. in a humidified 5% CO2 incubator.

[2] = tested on: LNCaP cells; experiment: Cellular potency (IC50) in LNCaP cells; details: Homo sapiens, LNCaP
Experimental: as §1

[3] = tested on: VCaP cells; experiment: Cellular potency (IC50) in VCaP cells; details: Homo sapiens, VCaP
Experimental: as §1

| SMILES | DC50 [1] [nM] | IC50 [2] [nM] | IC50 [3] [nM] |
| --- | --- | --- | --- |
| C[C@H]1CC2(CCN(c3ccc(CN4CCN(C5CCN(c6cc7c(cc6F)C(=O)N(C6CCC(=O)NC6=O)C7=O)CC5)CC4)cn3)CC2)CN1c1ccc(C#N)c(Cl)c1 (stereo partly drawn) [compound 165] | < 10 | < 10 | < 10 |
| C[C@H]1CC2(CCN(c3ccc(CN4CCC(N5CCN(c6ccc7c(c6)C(=O)N(C6CCC(=O)NC6=O)C7=O)CC5)CC4)cn3)CC2)CN1c1ccc(C#N)c(Cl)c1 (stereo partly drawn) [compound 166] | < 10 | < 100 | < 10 |
| C[C@H]1CC2(CCN(c3ccc(CN4CCC(N5CCN(c6cc7c(cc6F)C(=O)N(C6CCC(=O)NC6=O)C7=O)CC5)CC4)cn3)CC2)CN1c1ccc(C#N)c(Cl)c1 (stereo partly drawn) [compound 168] | < 10 | < 10 | < 10 |
| C[C@H]1CC2(CCN(c3cnc(CN4CCN(C5CCN(c6ccc7c(c6)C(=O)N(C6CCC(=O)NC6=O)C7=O)CC5)CC4)nc3)CC2)CN1c1ccc(C#N)c(Cl)c1 (stereo partly drawn) [compound 171] | < 10 | < 10 | < 100 |
| C[C@H]1CC2(CCN(c3ccc(CN4CCN(C5CN(c6cc7c(cc6F)C(=O)N(C6CCC(=O)NC6=O)C7=O)C5)CC4)nc3)CC2)CN1c1ccc(C#N)c(Cl)c1 (stereo partly drawn) [compound 172] | < 1 | < 10 | < 10 |
| C[C@H]1CC2(CCN(c3ccc(CN4CCN(C5CN(c6ccc7c(c6)C(=O)N(C6CCC(=O)NC6=O)C7=O)C5)CC4)nn3)CC2)CN1c1ccc(C#N)c(Cl)c1 (stereo partly drawn) [compound 173] | < 1 | < 10 | < 100 |
| C[C@H]1CC2(CCN(c3ccc(CN4CCN(C5CN(c6cc7c(cc6F)C(=O)N(C6CCC(=O)NC6=O)C7=O)C5)CC4)nn3)CC2)CN1c1ccc(C#N)c(Cl)c1 (stereo partly drawn) [compound 174] | < 1 | < 10 | < 10 |
| C[C@H]1CC2(CCN(c3cnc(CN4CCN(C5CN(c6cc7c(cc6F)C(=O)N(C6CCC(=O)NC6=O)C7=O)C5)CC4)nc3)CC2)CN1c1ccc(C#N)c(Cl)c1 (stereo partly drawn) [compound 175] | < 1 | < 10 | < 10 |
| C[C@H]1CC2(CCN(c3ccc(CN4CCC(C5CN(c6ccc7c(c6)C(=O)N(C6CCC(=O)NC6=O)C7=O)C5)CC4)cn3)CC2)CN1c1ccc(C#N)c(Cl)c1 (stereo partly drawn) [compound 176] | < 10 | < 10 | < 10 |
| C[C@H]1CC2(CCN(c3ccc(CN4CCC(C5CN(c6ccc7c(c6)C(=O)N(C6CCC(=O)NC6=O)C7=O)C5)CC4)nc3)CC2)CN1c1ccc(C#N)c(Cl)c1 (stereo partly drawn) [compound 177] | < 1 | < 10 | < 10 |
| C[C@H]1CC2(CCN(c3ccc(CN4CC(C5CCN(c6ccc7c(c6)C(=O)N(C6CCC(=O)NC6=O)C7=O)CC5)C4)cn3)CC2)CN1c1ccc(C#N)c(Cl)c1 (stereo partly drawn) [compound 178] | < 10 | < 100 | < 100 |
| C[C@H]1CC2(CCN(c3ccc(CN4CC(C5CCN(c6ccc7c(c6)C(=O)N(C6CCC(=O)NC6=O)C7=O)CC5)C4)nc3)CC2)CN1c1ccc(C#N)c(Cl)c1 (stereo partly drawn) [compound 179] | < 10 | < 10 | < 100 |
| C[C@H]1CC2(CCN(c3ccc(CN4CCC(C5CCN(c6ccc7c(c6)C(=O)N(C6CCC(=O)NC6=O)C7=O)CC5)CC4)nc3)CC2)CN1c1ccc(C#N)c(Cl)c1 (stereo partly drawn) [compound 181] | < 1 | < 10 | < 100 |
| C[C@H]1CC2(CCN(c3ccc(CN4CCN(C5CCN(c6ccc7c(c6)C(=O)N(C6CCC(=O)NC6=O)C7=O)CC5)CC4)nc3)CC2)CN1c1ccc(C#N)c(Cl)c1 (stereo partly drawn) [compound 182] | < 1 | < 10 | < 100 |
| C[C@H]1CC2(CCN(c3ncc(CN4CCN(C5CN(c6ccc7c(c6)C(=O)N(C6CCC(=O)NC6=O)C7=O)C5)CC4)cn3)CC2)CN1c1ccc(C#N)c(Cl)c1 (stereo partly drawn) [compound 183] | < 1 | < 100 | < 100 |
| C[C@H]1CC2(CCN(c3cnc(CN4CCN(C5CN(c6ccc7c(c6)C(=O)N(C6CCC(=O)NC6=O)C7=O)C5)CC4)cn3)CC2)CN1c1ccc(C#N)c(Cl)c1 (stereo partly drawn) [compound 185] | < 1 | < 100 | < 100 |
| C[C@H]1CC2(CCN(c3ccc(C(=O)N4CCC(N5CCOc6cc7c(cc6C5)C(=O)N(C5CCC(=O)NC5=O)C7=O)CC4)cc3)CC2)CN1c1ccc(C#N)c(Cl)c1 (stereo partly drawn) [compound 194] | < 10 | < 10 | < 100 |
| C[C@H]1CC2(CCN(c3ccc(C(=O)N4CCC(CN5CCOc6cc7c(cc6C5)C(=O)N(C5CCC(=O)NC5=O)C7=O)CC4)cc3)CC2)CN1c1ccc(C#N)c(Cl)c1 (stereo partly drawn) [compound 195] | < 10 | < 10 | < 100 |
| C[C@H]1CC2(CCN(c3ccc(CC4CCN(C5CN(c6ccc7c(c6)C(=O)N(C6CCC(=O)NC6=O)C7=O)C5)CC4)cn3)CC2)CN1c1ccc(C#N)c(Cl)c1 (stereo partly drawn) [compound 196] | < 1 | < 10 | < 100 |
| C[C@H]1CC2(CCN(c3ccc(CC4CCN(C5CN(c6ccc7c(c6)C(=O)N(C6CCC(=O)NC6=O)C7=O)C5)CC4)nc3)CC2)CN1c1ccc(C#N)c(Cl)c1 (stereo partly drawn) [compound 197] | < 1 | < 10 | < 10 |
| C[C@H]1CC2(CCN(c3ccc(CC4CCN(C5CN(c6ccc7c(c6)C(=O)N(C6CCC(=O)NC6=O)C7=O)C5)CC4)nn3)CC2)CN1c1ccc(C#N)c(Cl)c1 (stereo partly drawn) [compound 198] | < 10 | < 10 | < 10 |
| C[C@H]1CC2(CCN(c3ccc(CN4CCC(N5CCN(c6ccc7c(c6)C(=O)N(C6CCC(=O)NC6=O)C7=O)CC5)CC4)nn3)CC2)CN1c1ccc(C#N)c(Cl)c1 (stereo partly drawn) [compound 202] | < 1 | < 10 | < 10 |
| C[C@H]1CC2(CCN(c3ccc(CN4CCC(N5CCN(c6cc7c(cc6F)C(=O)N(C6CCC(=O)NC6=O)C7=O)CC5)CC4)nn3)CC2)CN1c1ccc(C#N)c(Cl)c1 (stereo partly drawn) [compound 203] | < 1 | < 10 | < 10 |
| C[C@H]1CC2(CCN(c3ccc(CN4CC(N5CCN(c6ccc7c(c6)C(=O)N(C6CCC(=O)NC6=O)C7=O)CC5)C4)cn3)CC2)CN1c1ccc(C#N)c(Cl)c1 (stereo partly drawn) [compound 204] | < 1 | < 10 | < 10 |
| C[C@H]1CC2(CCN(c3ccc(CN4CC(N5CCN(c6cc7c(cc6F)C(=O)N(C6CCC(=O)NC6=O)C7=O)CC5)C4)cn3)CC2)CN1c1ccc(C#N)c(Cl)c1 (stereo partly drawn) [compound 205] | < 1 | < 10 | < 10 |

From patent US20240190874A1, “SMALL MOLECULE DEGRADERS OF ANDROGEN RECEPTOR” (THE REGENTS OF THE UNIVERSITY OF MICHIGAN, priority 2021, published 2024)
